Experimental data as given in publication PMC12670405, “Second-Generation AURKA-Targeting PROTACs: Structural Optimization toward in Vivo Degradation in Neuroblastoma” (Journal of Medicinal Chemistry, 2025).

Columns and labels:
Assay in all cases: KINOMEscan scanMAX
Format in all cases: binding
Conditions in all cases: read-out: Percent Control
PRKCD = molecular target: T1, PRKCD (Homo sapiens, UniProt Q05655)
T1 construct: purchased Eurofins Discovery (DiscoverX KINOMEscan scanMAX)
Protocol: (§1) The kinome-wide binding assay was performed by Eurofins Discovery using the scanMAX screening platform. More information can be found on the Eurofins Discovery Web site.

TBK1 = molecular target: T2, TBK1 (Homo sapiens, UniProt Q9UHD2)
T2 construct: purchased Eurofins Discovery (DiscoverX KINOMEscan scanMAX)
Protocol: as §1

AMPK-alpha1 = molecular target: T3, AMPK-alpha1 (Homo sapiens, UniProt Q13131)
T3 construct: purchased Eurofins Discovery (DiscoverX KINOMEscan scanMAX)
T3 sequence (Q13131 whole entry): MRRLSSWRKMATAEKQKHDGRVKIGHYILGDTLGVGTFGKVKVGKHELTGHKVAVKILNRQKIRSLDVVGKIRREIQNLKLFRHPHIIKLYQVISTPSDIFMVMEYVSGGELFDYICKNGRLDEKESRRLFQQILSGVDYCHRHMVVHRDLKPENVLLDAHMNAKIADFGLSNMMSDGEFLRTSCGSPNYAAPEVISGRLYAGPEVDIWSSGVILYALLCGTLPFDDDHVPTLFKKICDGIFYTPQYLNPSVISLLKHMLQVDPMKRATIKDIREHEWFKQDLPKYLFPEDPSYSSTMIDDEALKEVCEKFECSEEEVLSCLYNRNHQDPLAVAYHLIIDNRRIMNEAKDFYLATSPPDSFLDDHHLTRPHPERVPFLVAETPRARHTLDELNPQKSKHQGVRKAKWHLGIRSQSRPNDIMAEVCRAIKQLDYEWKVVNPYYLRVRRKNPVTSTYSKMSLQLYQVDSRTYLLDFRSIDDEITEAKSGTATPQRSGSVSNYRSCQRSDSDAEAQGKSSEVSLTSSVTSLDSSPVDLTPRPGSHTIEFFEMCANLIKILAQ
Protocol: as §1

LOK = molecular target: T4, LOK (Homo sapiens, UniProt O94804)
T4 construct: purchased Eurofins Discovery (DiscoverX KINOMEscan scanMAX)
Protocol: as §1

WNK2 = molecular target: T5, WNK2 (Homo sapiens, UniProt Q9Y3S1)
T5 construct: purchased Eurofins Discovery (DiscoverX KINOMEscan scanMAX)
Protocol: as §1

NIK = molecular target: T6, NIK (Homo sapiens, UniProt Q99558)
T6 construct: purchased Eurofins Discovery (DiscoverX KINOMEscan scanMAX)
T6 sequence (Q99558 whole entry): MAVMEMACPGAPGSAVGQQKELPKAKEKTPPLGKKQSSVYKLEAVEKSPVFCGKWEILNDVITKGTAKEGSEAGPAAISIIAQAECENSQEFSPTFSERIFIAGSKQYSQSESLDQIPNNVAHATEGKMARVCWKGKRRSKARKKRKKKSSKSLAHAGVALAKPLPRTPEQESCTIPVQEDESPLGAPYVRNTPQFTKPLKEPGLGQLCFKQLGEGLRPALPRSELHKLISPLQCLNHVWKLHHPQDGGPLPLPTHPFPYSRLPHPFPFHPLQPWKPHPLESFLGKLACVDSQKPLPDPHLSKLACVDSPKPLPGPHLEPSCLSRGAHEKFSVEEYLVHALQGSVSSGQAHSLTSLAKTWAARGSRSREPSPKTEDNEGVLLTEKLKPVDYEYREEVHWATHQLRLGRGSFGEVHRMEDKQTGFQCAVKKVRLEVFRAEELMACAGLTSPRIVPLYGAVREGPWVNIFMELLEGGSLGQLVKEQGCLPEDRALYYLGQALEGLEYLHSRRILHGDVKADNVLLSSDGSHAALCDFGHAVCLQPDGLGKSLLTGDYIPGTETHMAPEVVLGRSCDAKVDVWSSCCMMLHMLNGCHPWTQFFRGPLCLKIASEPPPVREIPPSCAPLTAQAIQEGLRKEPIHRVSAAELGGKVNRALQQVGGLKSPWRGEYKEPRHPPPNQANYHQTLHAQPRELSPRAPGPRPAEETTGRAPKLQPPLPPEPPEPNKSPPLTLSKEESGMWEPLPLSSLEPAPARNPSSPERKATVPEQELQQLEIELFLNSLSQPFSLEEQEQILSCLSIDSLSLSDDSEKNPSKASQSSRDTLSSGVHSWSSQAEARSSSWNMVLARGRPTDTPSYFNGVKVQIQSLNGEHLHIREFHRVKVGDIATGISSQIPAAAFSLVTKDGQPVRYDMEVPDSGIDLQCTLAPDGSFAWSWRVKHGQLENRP
Protocol: as §1

PRKX = molecular target: T7, PRKX (Homo sapiens, UniProt P51817)
T7 construct: purchased Eurofins Discovery (DiscoverX KINOMEscan scanMAX)
Protocol: as §1

EGFR(L861Q) = molecular target: T8, EGFR(L861Q) (Homo sapiens, UniProt P00533, L861Q)
T8 construct: purchased Eurofins Discovery (DiscoverX KINOMEscan scanMAX)
T8 sequence (P00533 25-1210 L861Q): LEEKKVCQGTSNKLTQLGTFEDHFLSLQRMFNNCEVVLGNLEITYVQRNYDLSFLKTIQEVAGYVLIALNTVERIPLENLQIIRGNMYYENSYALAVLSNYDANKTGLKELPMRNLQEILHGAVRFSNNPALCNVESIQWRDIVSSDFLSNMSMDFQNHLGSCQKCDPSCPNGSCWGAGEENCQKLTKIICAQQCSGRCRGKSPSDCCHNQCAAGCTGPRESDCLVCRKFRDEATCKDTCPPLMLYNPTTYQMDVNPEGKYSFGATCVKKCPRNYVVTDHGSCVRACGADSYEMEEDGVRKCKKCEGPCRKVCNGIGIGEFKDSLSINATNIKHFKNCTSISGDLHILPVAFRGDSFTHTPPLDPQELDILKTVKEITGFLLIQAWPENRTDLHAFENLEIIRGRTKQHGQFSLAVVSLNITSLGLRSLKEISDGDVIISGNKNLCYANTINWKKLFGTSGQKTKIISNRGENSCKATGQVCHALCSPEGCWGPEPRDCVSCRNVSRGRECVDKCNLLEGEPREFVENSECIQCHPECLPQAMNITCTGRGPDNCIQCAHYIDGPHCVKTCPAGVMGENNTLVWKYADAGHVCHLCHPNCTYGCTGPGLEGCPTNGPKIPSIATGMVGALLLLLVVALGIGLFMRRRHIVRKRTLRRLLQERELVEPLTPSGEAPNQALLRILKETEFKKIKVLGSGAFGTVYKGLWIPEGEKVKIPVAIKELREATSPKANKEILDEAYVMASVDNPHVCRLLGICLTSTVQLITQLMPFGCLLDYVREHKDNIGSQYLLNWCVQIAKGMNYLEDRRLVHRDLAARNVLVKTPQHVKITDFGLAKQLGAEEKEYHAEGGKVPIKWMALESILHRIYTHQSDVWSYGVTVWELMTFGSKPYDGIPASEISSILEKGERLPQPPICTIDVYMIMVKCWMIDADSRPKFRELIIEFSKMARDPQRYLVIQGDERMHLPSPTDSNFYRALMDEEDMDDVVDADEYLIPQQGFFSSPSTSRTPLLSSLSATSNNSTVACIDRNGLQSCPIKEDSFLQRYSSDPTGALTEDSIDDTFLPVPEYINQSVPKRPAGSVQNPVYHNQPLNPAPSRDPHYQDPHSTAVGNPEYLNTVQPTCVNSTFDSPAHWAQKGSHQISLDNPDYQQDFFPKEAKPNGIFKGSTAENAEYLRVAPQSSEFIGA
Protocol: as §1

PIK4CB = molecular target: T9, PIK4CB (Homo sapiens, UniProt Q9UBF8)
T9 construct: purchased Eurofins Discovery (DiscoverX KINOMEscan scanMAX)
Protocol: as §1

SRPK3 = molecular target: T10, SRPK3 (Homo sapiens, UniProt Q9UPE1)
T10 construct: purchased Eurofins Discovery (DiscoverX KINOMEscan scanMAX)
Protocol: as §1

[1] = molecular target: T11, RPS6KA5(Kin.Dom.2-C-terminal) (Homo sapiens, UniProt O75582)
T11 construct: RPS6KA5(Kin.Dom.2-C-terminal); purchased Eurofins Discovery (DiscoverX KINOMEscan scanMAX)
Protocol: as §1

CLK3 = molecular target: T12, CLK3 (Homo sapiens, UniProt P49761)
T12 construct: purchased Eurofins Discovery (DiscoverX KINOMEscan scanMAX)
Protocol: as §1

ERK2 = molecular target: T13, ERK2 (Homo sapiens, UniProt P28482)
T13 construct: purchased Eurofins Discovery (DiscoverX KINOMEscan scanMAX)
Protocol: as §1

BTK = molecular target: T14, BTK (Homo sapiens, UniProt Q06187)
T14 construct: purchased Eurofins Discovery (DiscoverX KINOMEscan scanMAX)
T14 sequence (Q06187 whole entry): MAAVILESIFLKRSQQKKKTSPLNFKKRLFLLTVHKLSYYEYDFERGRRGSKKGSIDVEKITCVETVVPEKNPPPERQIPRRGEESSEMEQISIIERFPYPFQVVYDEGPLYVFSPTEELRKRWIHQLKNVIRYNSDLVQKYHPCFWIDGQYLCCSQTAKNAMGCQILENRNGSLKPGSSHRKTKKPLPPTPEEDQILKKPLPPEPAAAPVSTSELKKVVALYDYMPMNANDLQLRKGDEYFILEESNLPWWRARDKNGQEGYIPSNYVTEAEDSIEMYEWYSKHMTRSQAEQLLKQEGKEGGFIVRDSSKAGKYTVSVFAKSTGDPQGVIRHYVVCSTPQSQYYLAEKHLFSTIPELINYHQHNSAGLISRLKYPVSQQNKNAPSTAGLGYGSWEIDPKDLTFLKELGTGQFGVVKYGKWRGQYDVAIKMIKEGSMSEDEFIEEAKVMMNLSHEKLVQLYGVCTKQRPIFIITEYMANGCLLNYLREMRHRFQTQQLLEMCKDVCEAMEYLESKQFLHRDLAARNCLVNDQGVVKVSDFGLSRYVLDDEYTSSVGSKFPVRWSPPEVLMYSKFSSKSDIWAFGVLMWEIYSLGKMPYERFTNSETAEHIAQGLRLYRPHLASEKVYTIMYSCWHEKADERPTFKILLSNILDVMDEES
Protocol: as §1

RIPK4 = molecular target: T15, RIPK4 (Homo sapiens, UniProt P57078)
T15 construct: purchased Eurofins Discovery (DiscoverX KINOMEscan scanMAX)
Protocol: as §1

MRCKB = molecular target: T16, MRCKB (Homo sapiens, UniProt Q9Y5S2)
T16 construct: purchased Eurofins Discovery (DiscoverX KINOMEscan scanMAX)
Protocol: as §1

HCK = molecular target: T17, HCK (Homo sapiens, UniProt P08631)
T17 construct: purchased Eurofins Discovery (DiscoverX KINOMEscan scanMAX)
Protocol: as §1

FLT4 = molecular target: T18, FLT4 (Homo sapiens, UniProt P35916)
T18 construct: purchased Eurofins Discovery (DiscoverX KINOMEscan scanMAX)
Protocol: as §1

KIT = molecular target: T19, KIT (Homo sapiens, UniProt P10721)
T19 construct: purchased Eurofins Discovery (DiscoverX KINOMEscan scanMAX)
Protocol: as §1

CDKL2 = molecular target: T20, CDKL2 (Homo sapiens, UniProt Q92772)
T20 construct: purchased Eurofins Discovery (DiscoverX KINOMEscan scanMAX)
Protocol: as §1

ACVR1B = molecular target: T21, ACVR1B (Homo sapiens, UniProt P36896)
T21 construct: purchased Eurofins Discovery (DiscoverX KINOMEscan scanMAX)
Protocol: as §1

TRKB = molecular target: T22, TRKB (Homo sapiens, UniProt Q16620)
T22 construct: purchased Eurofins Discovery (DiscoverX KINOMEscan scanMAX)
Protocol: as §1

FGFR4 = molecular target: T23, FGFR4 (Homo sapiens, UniProt P22455)
T23 construct: purchased Eurofins Discovery (DiscoverX KINOMEscan scanMAX)
T23 sequence (P22455 22-802): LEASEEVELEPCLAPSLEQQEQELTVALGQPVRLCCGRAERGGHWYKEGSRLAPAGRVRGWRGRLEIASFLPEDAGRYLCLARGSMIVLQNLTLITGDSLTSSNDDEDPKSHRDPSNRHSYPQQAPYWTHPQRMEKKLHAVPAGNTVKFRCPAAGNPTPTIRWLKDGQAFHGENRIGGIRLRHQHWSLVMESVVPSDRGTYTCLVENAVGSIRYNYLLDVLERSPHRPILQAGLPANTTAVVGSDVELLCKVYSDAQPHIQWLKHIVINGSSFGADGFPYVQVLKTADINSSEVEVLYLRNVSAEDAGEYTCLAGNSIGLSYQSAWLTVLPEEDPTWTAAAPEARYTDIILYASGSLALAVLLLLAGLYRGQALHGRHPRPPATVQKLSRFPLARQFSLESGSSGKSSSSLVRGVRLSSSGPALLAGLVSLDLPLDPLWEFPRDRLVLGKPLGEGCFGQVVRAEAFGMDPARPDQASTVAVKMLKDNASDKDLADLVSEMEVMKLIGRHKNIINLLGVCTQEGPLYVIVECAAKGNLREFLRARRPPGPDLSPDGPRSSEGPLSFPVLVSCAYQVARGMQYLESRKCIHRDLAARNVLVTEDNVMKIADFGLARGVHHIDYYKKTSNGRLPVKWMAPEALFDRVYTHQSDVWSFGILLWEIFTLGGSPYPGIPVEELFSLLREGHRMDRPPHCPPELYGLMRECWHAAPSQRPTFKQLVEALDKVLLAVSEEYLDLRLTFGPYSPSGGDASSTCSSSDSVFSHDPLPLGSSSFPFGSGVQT
Protocol: as §1

PDGFRA = molecular target: T24, PDGFRA (Homo sapiens, UniProt P16234)
T24 construct: purchased Eurofins Discovery (DiscoverX KINOMEscan scanMAX)
Protocol: as §1

RIPK5 = molecular target: T25, RIPK5 (Homo sapiens, UniProt Q6XUX3)
T25 construct: purchased Eurofins Discovery (DiscoverX KINOMEscan scanMAX)
Protocol: as §1

PIK3CA(E542K) = molecular target: T26, PIK3CA(E542K) (Homo sapiens, UniProt P42336, E542K)
T26 construct: purchased Eurofins Discovery (DiscoverX KINOMEscan scanMAX)
Protocol: as §1

IKK-alpha = molecular target: T27, IKK-alpha (Homo sapiens, UniProt O15111)
T27 construct: purchased Eurofins Discovery (DiscoverX KINOMEscan scanMAX)
Protocol: as §1

[2] = molecular target: T28, ABL1(H396P)-nonphosphorylated (Homo sapiens, UniProt P00519, H396P)
T28 construct: purchased Eurofins Discovery (DiscoverX KINOMEscan scanMAX)
Protocol: as §1

ABL1-phosphorylated = molecular target: T29, ABL1-phosphorylated (Homo sapiens, UniProt P00519)
T29 construct: purchased Eurofins Discovery (DiscoverX KINOMEscan scanMAX)
Protocol: as §1

SRPK2 = molecular target: T30, SRPK2 (Homo sapiens, UniProt P78362)
T30 construct: purchased Eurofins Discovery (DiscoverX KINOMEscan scanMAX)
T30 sequence (P78362 whole entry): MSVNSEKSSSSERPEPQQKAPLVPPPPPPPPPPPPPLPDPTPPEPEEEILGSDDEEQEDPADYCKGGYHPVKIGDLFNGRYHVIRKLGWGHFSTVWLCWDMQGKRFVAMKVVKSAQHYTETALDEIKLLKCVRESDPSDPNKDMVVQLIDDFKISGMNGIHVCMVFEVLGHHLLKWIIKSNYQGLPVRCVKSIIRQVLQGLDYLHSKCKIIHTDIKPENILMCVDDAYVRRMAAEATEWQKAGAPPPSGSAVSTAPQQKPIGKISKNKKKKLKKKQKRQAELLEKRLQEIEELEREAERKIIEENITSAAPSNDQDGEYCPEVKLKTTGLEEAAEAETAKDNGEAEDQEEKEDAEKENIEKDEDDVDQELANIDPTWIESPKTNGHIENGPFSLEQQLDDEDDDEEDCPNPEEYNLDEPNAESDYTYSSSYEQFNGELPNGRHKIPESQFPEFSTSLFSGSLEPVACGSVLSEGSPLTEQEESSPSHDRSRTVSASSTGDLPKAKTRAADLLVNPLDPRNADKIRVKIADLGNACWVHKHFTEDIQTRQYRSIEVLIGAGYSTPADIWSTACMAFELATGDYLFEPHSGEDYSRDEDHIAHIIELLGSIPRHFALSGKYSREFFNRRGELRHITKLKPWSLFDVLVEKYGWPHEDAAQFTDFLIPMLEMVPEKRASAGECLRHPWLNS
Protocol: as §1

CAMK1B = molecular target: T31, CAMK1B (Homo sapiens, UniProt Q6P2M8)
T31 construct: purchased Eurofins Discovery (DiscoverX KINOMEscan scanMAX)
Protocol: as §1

MLK2 = molecular target: T32, MLK2 (Homo sapiens, UniProt Q02779)
T32 construct: purchased Eurofins Discovery (DiscoverX KINOMEscan scanMAX)
Protocol: as §1

JNK3 = molecular target: T33, JNK3 (Homo sapiens, UniProt P53779)
T33 construct: purchased Eurofins Discovery (DiscoverX KINOMEscan scanMAX)
Protocol: as §1

PIP5K1C = molecular target: T34, PIP5K1C (Homo sapiens, UniProt O60331)
T34 construct: purchased Eurofins Discovery (DiscoverX KINOMEscan scanMAX)
Protocol: as §1

Cc1cc(Nc2ccc(F)c(CC3(C(=O)N4CCC(F)(CN5CCN(c6ccc(N7CCC(=O)NC7=O)cn6)CC5)CC4)CCN(Cc4cccc(Cl)c4F)CC3)n2)n[nH]1 [SK5527]
remaining binding at 0.1 µM (PRKCD; 100 nM): 100% | remaining binding at 1 µM (PRKCD; 1000 nM): 100% | remaining binding at 0.1 µM (TBK1; 100 nM): 99% | remaining binding at 1 µM (TBK1; 1000 nM): 85% | remaining binding at 0.1 µM (AMPK-alpha1; 100 nM): 100% | remaining binding at 1 µM (AMPK-alpha1; 1000 nM): 100% | remaining binding at 0.1 µM (LOK; 100 nM): 100% | remaining binding at 1 µM (LOK; 1000 nM): 100% | remaining binding at 0.1 µM (WNK2; 100 nM): 100% | remaining binding at 1 µM (WNK2; 1000 nM): 100% | remaining binding at 0.1 µM (NIK; 100 nM): 100% | remaining binding at 1 µM (NIK; 1000 nM): 88% | remaining binding at 0.1 µM (PRKX; 100 nM): 79% | remaining binding at 1 µM (PRKX; 1000 nM): 96% | remaining binding at 0.1 µM (EGFR(L861Q); 100 nM): 95% | remaining binding at 1 µM (EGFR(L861Q); 1000 nM): 100% | remaining binding at 0.1 µM (PIK4CB; 100 nM): 73% | remaining binding at 1 µM (PIK4CB; 1000 nM): 65% | remaining binding at 0.1 µM (SRPK3; 100 nM): 100% | remaining binding at 1 µM (SRPK3; 1000 nM): 97% | remaining binding at 0.1 µM ([1]; 100 nM): 100% | remaining binding at 1 µM ([1]; 1000 nM): 96% | remaining binding at 0.1 µM (CLK3; 100 nM): 100% | remaining binding at 1 µM (CLK3; 1000 nM): 100% | remaining binding at 0.1 µM (ERK2; 100 nM): 100% | remaining binding at 1 µM (ERK2; 1000 nM): 97% | remaining binding at 0.1 µM (BTK; 100 nM): 88% | remaining binding at 1 µM (BTK; 1000 nM): 80% | remaining binding at 0.1 µM (RIPK4; 100 nM): 67% | remaining binding at 1 µM (RIPK4; 1000 nM): 46% | remaining binding at 0.1 µM (MRCKB; 100 nM): 98% | remaining binding at 1 µM (MRCKB; 1000 nM): 93% | remaining binding at 0.1 µM (HCK; 100 nM): 100% | remaining binding at 1 µM (HCK; 1000 nM): 100% | remaining binding at 0.1 µM (FLT4; 100 nM): 76% | remaining binding at 1 µM (FLT4; 1000 nM): 40% | remaining binding at 0.1 µM (KIT; 100 nM): 100% | remaining binding at 1 µM (KIT; 1000 nM): 61% | remaining binding at 0.1 µM (CDKL2; 100 nM): 90% | remaining binding at 1 µM (CDKL2; 1000 nM): 100% | remaining binding at 0.1 µM (ACVR1B; 100 nM): 100% | remaining binding at 1 µM (ACVR1B; 1000 nM): 100% | remaining binding at 0.1 µM (TRKB; 100 nM): 95% | remaining binding at 1 µM (TRKB; 1000 nM): 47% | remaining binding at 0.1 µM (FGFR4; 100 nM): 89% | remaining binding at 1 µM (FGFR4; 1000 nM): 89% | remaining binding at 0.1 µM (PDGFRA; 100 nM): 92% | remaining binding at 1 µM (PDGFRA; 1000 nM): 84% | remaining binding at 0.1 µM (RIPK5; 100 nM): 97% | remaining binding at 1 µM (RIPK5; 1000 nM): 81% | remaining binding at 0.1 µM (PIK3CA(E542K); 100 nM): 81% | remaining binding at 1 µM (PIK3CA(E542K); 1000 nM): 68% | remaining binding at 0.1 µM (IKK-alpha; 100 nM): 100% | remaining binding at 1 µM (IKK-alpha; 1000 nM): 100% | remaining binding at 0.1 µM ([2]; 100 nM): 68% | remaining binding at 1 µM ([2]; 1000 nM): 19% | remaining binding at 0.1 µM (ABL1-phosphorylated; 100 nM): 67% | remaining binding at 1 µM (ABL1-phosphorylated; 1000 nM): 48% | remaining binding at 0.1 µM (SRPK2; 100 nM): 93% | remaining binding at 1 µM (SRPK2; 1000 nM): 79% | remaining binding at 0.1 µM (CAMK1B; 100 nM): 100% | remaining binding at 1 µM (CAMK1B; 1000 nM): 100% | remaining binding at 0.1 µM (MLK2; 100 nM): 100% | remaining binding at 1 µM (MLK2; 1000 nM): 100% | remaining binding at 0.1 µM (JNK3; 100 nM): 63% | remaining binding at 1 µM (JNK3; 1000 nM): 69% | remaining binding at 0.1 µM (PIP5K1C; 100 nM): 100% | remaining binding at 1 µM (PIP5K1C; 1000 nM): 94%
